The results in this text go back to ChEMBL document CHEMBL1909046, “DrugMatrix in vitro pharmacology data”.

One series concerns the target T1, Cytochrome P450 1A2 (Homo sapiens, UniProt P05177). Also: in other assays of this panel Not Active means under 50% inhibition at 10 µM.
T1 sequence (P05177 whole entry): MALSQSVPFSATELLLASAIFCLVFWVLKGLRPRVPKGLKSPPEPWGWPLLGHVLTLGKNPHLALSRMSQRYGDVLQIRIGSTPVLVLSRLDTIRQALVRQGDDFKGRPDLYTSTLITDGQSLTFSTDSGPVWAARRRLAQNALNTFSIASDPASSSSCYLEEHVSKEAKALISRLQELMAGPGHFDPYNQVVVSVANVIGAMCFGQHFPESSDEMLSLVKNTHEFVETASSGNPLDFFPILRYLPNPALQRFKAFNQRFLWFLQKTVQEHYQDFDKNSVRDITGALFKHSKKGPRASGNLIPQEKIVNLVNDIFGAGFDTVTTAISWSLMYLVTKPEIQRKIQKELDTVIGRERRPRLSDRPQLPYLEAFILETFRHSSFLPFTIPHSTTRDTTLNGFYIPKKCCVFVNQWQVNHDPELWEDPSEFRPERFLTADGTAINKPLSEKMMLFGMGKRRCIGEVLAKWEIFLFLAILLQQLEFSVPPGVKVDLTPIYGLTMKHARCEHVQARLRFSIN
To be noted: bti-tn-5b1-4.

A further series concerns the target T2, Interstitial collagenase (Homo sapiens, UniProt P03956).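 Also: MMP-1 enzyme inhibition assay using a peptide substrate; in other assays of this panel Not Active means under 50% inhibition at 10 µM.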
T2 sequence (P03956 whole entry): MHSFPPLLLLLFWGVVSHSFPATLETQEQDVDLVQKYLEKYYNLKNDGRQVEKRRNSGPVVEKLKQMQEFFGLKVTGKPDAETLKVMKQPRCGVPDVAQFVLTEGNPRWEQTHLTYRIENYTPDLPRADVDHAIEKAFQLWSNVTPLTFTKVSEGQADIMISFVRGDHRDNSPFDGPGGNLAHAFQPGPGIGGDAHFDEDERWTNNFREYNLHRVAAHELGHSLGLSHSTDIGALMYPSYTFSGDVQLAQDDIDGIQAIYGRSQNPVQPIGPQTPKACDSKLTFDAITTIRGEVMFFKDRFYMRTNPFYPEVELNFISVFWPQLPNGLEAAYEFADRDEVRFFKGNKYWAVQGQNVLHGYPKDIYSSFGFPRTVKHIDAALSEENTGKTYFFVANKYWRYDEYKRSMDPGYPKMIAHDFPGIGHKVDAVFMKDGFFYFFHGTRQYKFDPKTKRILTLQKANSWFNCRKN
The experiment in a line: biochemical. Format: tissue-based, Rheumatoid synovial fibroblasts.

Series [1] has as its target T3, Alpha-2A adrenergic receptor (Homo sapiens, UniProt P08913). Also: in other assays of this panel Not Active means under 50% inhibition at 10 µM.
T3 sequence (P08913 whole entry): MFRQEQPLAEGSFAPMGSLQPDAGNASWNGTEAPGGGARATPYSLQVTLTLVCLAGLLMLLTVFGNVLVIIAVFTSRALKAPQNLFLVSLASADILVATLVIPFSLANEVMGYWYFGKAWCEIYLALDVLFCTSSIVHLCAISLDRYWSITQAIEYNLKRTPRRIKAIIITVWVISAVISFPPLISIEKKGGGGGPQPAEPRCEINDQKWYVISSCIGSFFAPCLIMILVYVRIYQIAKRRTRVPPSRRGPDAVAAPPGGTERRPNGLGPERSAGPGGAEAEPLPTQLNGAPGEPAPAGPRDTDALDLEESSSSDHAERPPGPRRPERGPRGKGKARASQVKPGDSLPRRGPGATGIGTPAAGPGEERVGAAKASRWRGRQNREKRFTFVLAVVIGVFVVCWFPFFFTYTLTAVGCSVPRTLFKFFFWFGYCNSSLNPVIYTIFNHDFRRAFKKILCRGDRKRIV
Format: cell membranes, Sf9, Membrane.

The next series addresses Carbonic anhydrase 2 (Homo sapiens, UniProt P00918). In words: DRUGMATRIX: Carbonic Anhydrase II enzyme inhibition (substrate: 4-Nitrophenyl acetate (4-NPA)). The series is classed as tissue-based, Erythrocyte. The conditions noted are these: erythrocyte; Not Active = under 50% inhibition at 10 µM.
The next series addresses Melanocortin receptor 4 (Homo sapiens, UniProt P32245). Format: cell membranes, Membrane. The conditions noted are these: hek293.
Series [2] addresses 5-hydroxytryptamine receptor 2B (Homo sapiens, UniProt P41595). The series is classed as cell membranes, CHO-K1, Membrane. The conditions noted are these: cho-k1.
Series [3] concerns the target T4, Muscarinic acetylcholine receptor M2 (Homo sapiens, UniProt P08172). Also: in other assays of this panel Not Active means under 50% inhibition at 10 µM.
T4 sequence (P08172 whole entry): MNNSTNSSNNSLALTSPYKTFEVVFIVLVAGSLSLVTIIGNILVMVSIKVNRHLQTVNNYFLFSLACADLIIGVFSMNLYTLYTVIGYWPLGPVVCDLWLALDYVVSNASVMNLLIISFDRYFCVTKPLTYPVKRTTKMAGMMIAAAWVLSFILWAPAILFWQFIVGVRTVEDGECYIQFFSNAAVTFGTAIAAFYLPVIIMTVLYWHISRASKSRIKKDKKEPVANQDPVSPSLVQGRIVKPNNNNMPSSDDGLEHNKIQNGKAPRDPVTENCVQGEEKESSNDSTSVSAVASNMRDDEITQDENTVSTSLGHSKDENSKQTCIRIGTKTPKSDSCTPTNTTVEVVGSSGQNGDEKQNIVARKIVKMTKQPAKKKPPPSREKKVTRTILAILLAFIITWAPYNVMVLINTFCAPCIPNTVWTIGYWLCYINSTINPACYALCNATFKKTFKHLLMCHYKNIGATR
Format: cell membranes, CHO-K1, Membrane. To be noted: cho-k1.

Chain of 5-hydroxytryptamine receptor 2B (P41595 whole entry): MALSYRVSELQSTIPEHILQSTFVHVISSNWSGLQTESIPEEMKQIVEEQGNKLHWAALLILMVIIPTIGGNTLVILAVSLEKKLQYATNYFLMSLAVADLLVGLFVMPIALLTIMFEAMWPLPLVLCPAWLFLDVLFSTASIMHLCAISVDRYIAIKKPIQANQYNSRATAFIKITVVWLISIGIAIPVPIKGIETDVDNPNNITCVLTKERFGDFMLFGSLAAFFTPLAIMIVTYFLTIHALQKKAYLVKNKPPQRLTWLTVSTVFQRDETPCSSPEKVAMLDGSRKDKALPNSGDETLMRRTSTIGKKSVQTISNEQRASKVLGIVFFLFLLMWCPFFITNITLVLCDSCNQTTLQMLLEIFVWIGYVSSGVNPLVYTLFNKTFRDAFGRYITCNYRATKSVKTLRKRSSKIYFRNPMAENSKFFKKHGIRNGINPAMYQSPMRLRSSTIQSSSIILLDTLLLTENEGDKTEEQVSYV
Chain of Melanocortin receptor 4 (P32245 whole entry): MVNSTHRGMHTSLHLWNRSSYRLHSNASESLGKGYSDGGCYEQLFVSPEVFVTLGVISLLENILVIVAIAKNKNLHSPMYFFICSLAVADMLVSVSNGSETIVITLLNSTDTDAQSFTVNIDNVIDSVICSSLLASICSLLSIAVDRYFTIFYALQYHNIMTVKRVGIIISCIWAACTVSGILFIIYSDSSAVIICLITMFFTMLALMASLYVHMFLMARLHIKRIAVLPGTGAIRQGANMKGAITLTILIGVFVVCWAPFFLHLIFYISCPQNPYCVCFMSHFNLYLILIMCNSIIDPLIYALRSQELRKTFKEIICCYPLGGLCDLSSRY

As usually defined, the IC50 is the concentration that gives 50% inhibition. As usually defined, the Ki is the equilibrium dissociation constant of an inhibitor or competing ligand from its target. As to `CC1CCC(NC(=O)N(CCCl)N=O)CC1` (stereo not drawn) [SEMUSTINE], the IC50 entry at Cytochrome P450 1A2 is “Not Active”; against Interstitial collagenase, “Not Active”; in series [1] (read-out: IC50), 4.81 µM; on Carbonic anhydrase 2 it was “Not Active”; at Melanocortin receptor 4 it was “Not Active”; in series [2], “Not Active”. In series [3], the IC50 result is on record as “Not Active”. The Ki entry at Cytochrome P450 1A2 was “Not Active”; in series [1] (read-out: Ki), 1.8 µM.
With `O=C1C[C@@H]2OCC=C3CN4CC[C@]56c7ccccc7N1[C@H]5[C@H]2[C@H]3C[C@H]46` [STRYCHNINE], the IC50 result (against Cytochrome P450 1A2; against Interstitial collagenase; in series [1] (sf9); at Carbonic anhydrase 2; at Melanocortin receptor 4; in series [2]) was “Not Active” in each case. In addition, the IC50 entry in series [3] was “Not Active”. Moreover, at Cytochrome P450 1A2, the Ki result is given as “Not Active”.
With `C[N+](C)(C)CCOC(=O)CCC(=O)OCC[N+](C)(C)C.[Cl-].[Cl-]` [SUCCINYLCHOLINE CHLORIDE], the IC50 entry (on Cytochrome P450 1A2; at Interstitial collagenase; in series [1] (sf9); on Carbonic anhydrase 2; against Melanocortin receptor 4; in series [2]) was “Not Active” each time. For the same compound, the IC50 result in series [3] is recorded as “Not Active”. Further, the Ki result at Cytochrome P450 1A2 was “Not Active”.
With `Nc1ccc(S(=O)(=O)NC(=O)c2ccccc2)cc1` [SULFABENZAMIDE], the IC50 entry (against Cytochrome P450 1A2; on Interstitial collagenase; in series [1] (sf9); against Carbonic anhydrase 2; at Melanocortin receptor 4; in series [2]) was “Not Active” each time. Moreover, the IC50 entry in series [3] was “Not Active”. At Cytochrome P450 1A2, the Ki result is given as “Not Active”.
In the case of `O=c1[nH]c(=O)n(C2CCCO2)cc1F` (stereo not drawn) [TEGAFUR], the IC50 entry (at Cytochrome P450 1A2; on Interstitial collagenase; in series [1] (sf9); on Carbonic anhydrase 2; at Melanocortin receptor 4; in series [2]) was “Not Active” in each case. Also, the IC50 entry in series [3] is reported as “Not Active”. The Ki result at Cytochrome P450 1A2 was “Not Active”.
Consider `CC(=N)S` [THIOACETAMIDE], for which the IC50 result (at Cytochrome P450 1A2; on Interstitial collagenase; in series [1] (sf9); on Carbonic anhydrase 2; against Melanocortin receptor 4; in series [2]) was “Not Active” throughout. The IC50 result in series [3] is recorded as “Not Active”. In addition, the Ki entry on Cytochrome P450 1A2 is listed as “Not Active”.
`Cc1ccc(C(=O)c2ccc(CC(=O)O)n2C)cc1` [TOLMETIN]: the IC50 result (against Cytochrome P450 1A2; against Interstitial collagenase; in series [1] (sf9); against Carbonic anhydrase 2; on Melanocortin receptor 4; in series [2]) was “Not Active” throughout. Also, in series [3], the IC50 entry is listed as “Not Active”. On Cytochrome P450 1A2, the Ki entry is “Not Active”.
As for `CC(=O)OCC(COC(C)=O)OC(C)=O` [TRIACETIN], the IC50 result (against Cytochrome P450 1A2; on Interstitial collagenase; in series [1] (sf9); on Carbonic anhydrase 2; on Melanocortin receptor 4; in series [2]) was “Not Active” each time. The IC50 result in series [3] is on record as “Not Active”. Further, at Cytochrome P450 1A2, the Ki entry is “Not Active”.
Take TRANSPLATIN: the IC50 entry (at Cytochrome P450 1A2; against Interstitial collagenase; in series [1] (sf9); on Carbonic anhydrase 2; against Melanocortin receptor 4; in series [2]) was “Not Active” throughout. For the same compound, in series [3], the IC50 entry is reported as “Not Active”. Moreover, the Ki entry (at Cytochrome P450 1A2; on Interstitial collagenase; in series [1] (sf9); at Carbonic anhydrase 2; at Melanocortin receptor 4; in series [2]) was “Not Active” each time. Also, the Ki result in series [3] is recorded as “Not Active”.
ZIRCONIUM(IV) CHLORIDE: the IC50 entry (on Cytochrome P450 1A2; at Interstitial collagenase; in series [1] (sf9); on Carbonic anhydrase 2; on Melanocortin receptor 4; in series [2]) was “Not Active” each time. In series [3], the IC50 entry is on record as “Not Active”. Further, the Ki result (on Cytochrome P450 1A2; at Interstitial collagenase; in series [1] (sf9); on Carbonic anhydrase 2; on Melanocortin receptor 4; in series [2]) was “Not Active” each time. Moreover, the inhibition constant (Ki) result in series [3] is recorded as “Not Active”.
